From paper PMC7011943, “Discovery of novel PDE9A inhibitors with antioxidant activities for treatment of Alzheimer’s disease” (Journal of Enzyme Inhibition and Medicinal Chemistry, 2017)
Entries after “also recorded” stand apart in the source; their conditions may differ. Read-outs that look alike come from different tables or passages of the source.

Tests used:
[1] = Antioxidant activity, oxygen radical absorbance capacity fluorescein (ORAC-FL) method; details: for ORAC: samples 1–10 μM
Description: The antioxidant activity was determined by the modified oxygen radical absorbance capacity fluorescein (ORAC-FL) method[31]^,[32]. All the assays were diluted with 75 mM phosphate buffer (pH 7.4). The final reaction mixture was 200 μl. Test compound (20 μl) and fluorescein (120 μl, 150 nM final concentration) were placed in the wells of a black 96-well plate. After the mixture was incubated at 37 °C for 15 min, AAPH solution (60 μl, 12 mM final concentration) was added. The plate was placed in a Spectrafluor Plus plate reader (Tecan, Crailsheim, Germany) and the fluorescence was recorded every minute for 4 h with excitation at 485 nm and emission at 535 nm. Trolox was used as standard (1–8 μM, final concentration). A blank (FL + AAPH) in phosphate buffer instead of test compounds and trolox calibration were performed in each assay. The samples were measured at different concentration (1–10 μM). All the reaction mixture was prepared fourfold and at least three independent assays were performed for each sample. Fluorescence in time course was normalised on basis of the blank (without antioxidants). The ORAC-FL values were calculated as the reported method. ORAC-FL values were expressed as trolox equivalents.

PDE9A = biological target: T1, PDE9A (Homo sapiens, UniProt O76083); assay: Enzymatic assay against PDE9A (3H-cGMP substrate); type: biochemical
T1 construct: pET-PDE9A2 plasmid (catalytic domain, 181–506); made in house; host or cells: E. coli BL21 (Codonplus)
T1 sequence (O76083 241-566): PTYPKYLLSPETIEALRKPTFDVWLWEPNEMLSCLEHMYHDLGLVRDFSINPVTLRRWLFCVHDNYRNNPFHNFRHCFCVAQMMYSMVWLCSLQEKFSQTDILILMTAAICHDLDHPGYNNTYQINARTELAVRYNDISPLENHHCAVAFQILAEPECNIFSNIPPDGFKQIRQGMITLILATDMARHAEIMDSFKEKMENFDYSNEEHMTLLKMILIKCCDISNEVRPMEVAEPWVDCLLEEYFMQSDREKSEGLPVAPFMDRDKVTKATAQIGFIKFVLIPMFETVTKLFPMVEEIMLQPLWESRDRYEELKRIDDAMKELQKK
Description: The E. coli cells carrying pET-PDE9A2 was grown in LB medium (containing 100 μg/ml ampicillin and 0.4% glucose) at 37 °C until OD600 = 0.6–0.8. 0.1 mM iso-propyl-β-D-thiogalactopyranoside was added to induce the PDE9A2 protein expression at 15 °C for 20 h. PDE9A was purified on the nickel nitriloacetic acid (Ni-NTA) column (Qiagen, Hilden, Germany) and eluted with 0.25 M imidazole. The concentration of PDE9A was estimated by the absorbance at 280 nm (calculated using ProtParam software, http://web.expasy.org/protparam). A typical batch of purification yielded 30–60 mg PDE9A2 protein from a 0.5 l cell culture. The PDE9A2 proteins had purity greater than 90% as shown by sodium dodecyl sulphate polyacrylamide gel electrophoresis (SDS-PAGE).
The enzymatic activities of the catalytic domain of PDE9A2 were measured by using ^3H-cGMP as the substrate and the assay buffer of 50 mM Tris-HCl (pH 8.0), 10 mM MgCl2, and 1 mM DTT. Each assay used ^3H-cGMP 20,000–30,000 cpm. The reaction was carried out at room temperature (25 °C) for 15 min and then terminated by addition of 0.2 M ZnSO4. The reaction product was precipitated by 0.2 N Ba(OH)2, whereas unreacted ^3H-cGMP remained in the supernatant. […] At least eight concentrations of inhibitors were measured parallel in each measurement, resulting an inhibition curve to calculate the IC50 value of inhibitors by nonlinear regression. Each measurement was repeated at least three times. The mean and standard deviation statistics of these three IC50 values were used as the final IC50 value and the corresponding SD.

PDE1B [2] = assay: Enzymatic assay against PDE1B (3H-cGMP substrate); type: biochemical; details: estimated from inhibition at 1 μM
Description: (§2) The enzymatic activities of PDE1B and PDE8A were assayed by using ^3H-cGMP and ^3H-cAMP as the substrates, respectively, following the same procedure for PDE9A.

PDE1B [3] = biological target: T2, PDE1B (Homo sapiens, UniProt Q01064); assay: Enzymatic assay against PDE1B (3H-cGMP substrate); type: biochemical; details: 1000 nM (1 μM)
T2 construct: The catalytic domains of PDE1B (10–516) and PDE8A (480–820); made in house
T2 sequence (Q01064 10-516): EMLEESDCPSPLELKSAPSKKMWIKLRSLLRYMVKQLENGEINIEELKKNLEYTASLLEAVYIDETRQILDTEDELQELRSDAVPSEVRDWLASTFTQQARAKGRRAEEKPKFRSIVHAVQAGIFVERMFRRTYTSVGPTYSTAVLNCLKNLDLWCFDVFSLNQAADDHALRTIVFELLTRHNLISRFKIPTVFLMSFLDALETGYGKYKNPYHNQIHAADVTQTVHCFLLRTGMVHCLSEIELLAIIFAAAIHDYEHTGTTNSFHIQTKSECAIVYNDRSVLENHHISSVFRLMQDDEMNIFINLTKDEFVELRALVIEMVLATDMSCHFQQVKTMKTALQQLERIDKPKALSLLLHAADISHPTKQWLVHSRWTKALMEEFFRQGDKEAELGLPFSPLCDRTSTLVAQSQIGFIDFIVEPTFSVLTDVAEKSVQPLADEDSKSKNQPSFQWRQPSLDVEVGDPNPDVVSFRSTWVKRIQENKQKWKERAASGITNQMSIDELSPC
Description: as §2

PDE8A = biological target: T3, PDE8A (Homo sapiens, UniProt O60658); assay: Enzymatic assay against PDE8A (3H-cAMP substrate); type: biochemical
T3 construct: The catalytic domains of PDE1B (10–516) and PDE8A (480–820); made in house
T3 sequence (O60658 480-820): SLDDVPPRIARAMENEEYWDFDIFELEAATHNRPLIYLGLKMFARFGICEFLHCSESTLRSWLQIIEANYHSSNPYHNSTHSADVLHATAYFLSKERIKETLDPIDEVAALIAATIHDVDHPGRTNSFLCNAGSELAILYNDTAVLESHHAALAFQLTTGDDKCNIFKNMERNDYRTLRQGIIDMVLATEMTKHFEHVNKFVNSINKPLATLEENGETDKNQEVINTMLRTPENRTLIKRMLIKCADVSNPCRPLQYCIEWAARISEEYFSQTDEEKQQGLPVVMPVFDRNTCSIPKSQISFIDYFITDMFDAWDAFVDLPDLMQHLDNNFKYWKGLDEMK
Description: as §2

[4] = In vitro cell viability assay (MTT); type: cell-based, human; details: human, SH-SY5Y cells, 48 h incubation, read-out: cellular viability
Description: (§1) SH-SY5Y cells were used for the cytotoxicity test by the MTT (3–(4, 5-dimethyl-2-thiazolyl)-2,5-diphenyl-2-H-tetrazoliumbromide) method. After incubation of the SH-SY5Y cells (5 × 10^3) in a 96-well plate for 24 h, compounds at concentrations of 10, 20, 40, 60, 80, and 100 μM, were added. After incubation for 48 h, MTT solution was added to each cell well and the system was further inoculated for 4 h at 37 °C. The purple formazan dye and 120 μl DMSO were added to the cells and the absorbance was measured at 570 nm using EnSpire-2300 Multimode Reader (PerkinElmer, Waltham, MA).

SH-SY5Y cells = assay: In vitro cell viability assay (MTT); type: cell-based, human; details: for cytotoxicity to SH-SY5Y cells (in words): 48 h, up to 100 μM
Description: as §1

PDE1B [5] = details: printed under head 'Inhibition of PDE1B at 1000 nM'; cited from earlier work
[6] = Table 1 and text, means of three independent determinations, read-out: IC50±SD

IC50 (PDE9A; [6]) [nM] | Compound | ORAC [1] [trolox equivalents] | ORAC-FL value / antioxidant activity (in words) [1] | also measured
126 ± 15 | COc1cc(/C=C/C(=O)N[C@H](C)c2nc3c(cnn3C3CCCC3)c(=O)[nH]2)ccc1O [Compound 1a, (R, E)-N-(1–(1-cyclopentyl-4-oxo-4,5-dihydro-1H-pyrazolo[3,4-d]pyrimidin-6-yl)ethyl)-3–(4-hydroxy-3-methoxyphenyl)acrylamide] | 2.4 | – | –
64 ± 2 | C[C@@H](NC(=O)/C=C/c1ccc(O)c(O)c1)c1nc2c(cnn2C2CCCC2)c(=O)[nH]1 [Compound 1b, (R, E)-N-(1–(1-cyclopentyl-4-oxo-4,5-dihydro-1H-pyrazolo[3,4-d]pyrimidin-6-yl)ethyl)-3–(3,4-dihydroxyphenyl)acrylamide] | 2.5 | – | –
65 ± 4 | COc1ccc(/C=C/C(=O)N[C@H](C)c2nc3c(cnn3C3CCCC3)c(=O)[nH]2)cc1OC [Compound 1c, (R, E)-N-(1–(1-cyclopentyl-4-oxo-4,5-dihydro-1H-pyrazolo[3,4-d]pyrimidin-6-yl)ethyl)-3– (3,4-dimethoxyphenyl)acrylamide] | 0.23 | low ORAC-FL values | –
83 ± 11 | COc1ccc(/C=C/C(=O)N[C@H](C)c2nc3c(cnn3C3CCCC3)c(=O)[nH]2)cc1O [Compound 1d, (R, E)-N-(1–(1-cyclopentyl-4-oxo-4,5-dihydro-1H-pyrazolo[3,4-d]pyrimidin-6-yl)ethyl)-3–(3-hydroxy-4-methoxyphenyl)acrylamide] | 1.26 | – | –
190 ± 7 | COc1cccc(/C=C/C(=O)N[C@H](C)c2nc3c(cnn3C3CCCC3)c(=O)[nH]2)c1 [Compound 1f, (R, E)-N-(1–(1-cyclopentyl-4-oxo-4,5-dihydro-1H-pyrazolo[3,4-d]pyrimidin-6-yl)ethyl)-3–(3-methoxyphenyl)acrylamide] | 0.12 | low ORAC-FL values | –
63 ± 3 | C[C@@H](NC(=O)/C=C/c1ccc(O)cc1)c1nc2c(cnn2C2CCCC2)c(=O)[nH]1 [Compound 1g, (R, E)-N-(1–(1-cyclopentyl-4-oxo-4,5-dihydro-1H-pyrazolo[3,4-d]pyrimidin-6-yl)ethyl)-3–(4-hydroxyphenyl)acrylamide] | 2.9 | – | –
133 ± 22 | C[C@@H](NC(=O)/C=C/c1ccc(N(C)C)cc1)c1nc2c(cnn2C2CCCC2)c(=O)[nH]1 [Compound 1i, (R, E)-N-(1–(1-cyclopentyl-4-oxo-4,5-dihydro-1H-pyrazolo[3,4-d]pyrimidin-6-yl)ethyl)-3–(4-(dimethylamino)phenyl)acrylamide] | 1.00 | – | –
186 ± 7 | C[C@@H](NC(=O)/C=C/c1cccc(Cl)c1)c1nc2c(cnn2C2CCCC2)c(=O)[nH]1 [Compound 1j, (R, E)-N-3–(3-chlorophenyl)-N-(1–(1-cyclopentyl-4-oxo-4,5-dihydro-1H-pyrazolo[3,4-d]pyrimidin-6-yl)ethyl)acrylamide] | 0.08 | low ORAC-FL values | –
130 ± 6 | C[C@@H](NC(=O)/C=C/c1ccc(C(F)(F)F)cc1)c1nc2c(cnn2C2CCCC2)c(=O)[nH]1 [Compound 1k, (R, E)-N-(1–(1-cyclopentyl-4-oxo-4,5-dihydro-1H-pyrazolo[3,4-d]pyrimidin-6-yl)ethyl)-3–(4-(trifluoromethyl)phenyl)acrylamide] | 0.02 | low ORAC-FL values | –
57 ± 4 | C[C@@H](NC(=O)Cc1ccc(O)c(O)c1)c1nc2c(cnn2C2CCCC2)c(=O)[nH]1 [Compound 1l, (R, E)-N-(1–(1-cyclopentyl-4-oxo-4,5-dihydro-1H-pyrazolo[3,4-d]pyrimidin-6-yl)ethyl)-2–(3,4-dihydroxyphenyl)acetamide] | 2.6 | – | –
– | C[C@@H](NC(=O)CCCC[C@@H]1CCSS1)c1nc2c(cnn2C2CCCC2)c(=O)[nH]1 [Compound 2, N-((1N)-1–(1-cyclopentyl-4-oxo-3a, 4,5,6-tetrahydro-1H-pyrazolo[3,4-d]pyrimi–din-6-yl)ethyl)-5-((R)-1,2-dithiolan-3-yl)pentanamide] | 0.28 | low antioxidant activity | inhibition at 1 µM (PDE1B [3]): 59%; inhibition at 10 µM (PDE8A): 9%; cellular viability (SH-SY5Y cells; 100 μM, 48 h incubation): no significant effect on cell viability; cytotoxicity to SH-SY5Y cells (in words) (SH-SY5Y cells): not toxic
> 500 | Cc1c(C)c2c(c(C)c1O)CCC(C)(C(=O)N[C@H](C)c1nc3c(cnn3C3CCCC3)c(=O)[nH]1)O2 (stereo partly drawn) [Compound 3, N-((R)-1–(1-cyclopentyl-4-oxo-4,5-dihydro-1H-pyrazolo[3,4-d]pyrimidin-6-yl)ethyl) -6-hydroxy-2,5,7,8-tetramethylchromane-2-carboxamide] | 0.24 | – | –
– | COc1cc(/C=C/C(=O)O)ccc1O [Ferulic acid, reference compound] | 1.6 | – | –
– | C[C@@H]1CN(Cc2ncccn2)C[C@H]1c1nc2c(cnn2C2CCOCC2)c(=O)[nH]1 [PF-04447943, 6-[(3S,4S)-4-Methyl-1-(pyrimidin-2-ylmethyl)pyrrolidin-3-yl]-1-(tetrahydro-2H-pyran-4-yl)-1,5-dihydro-4H-pyrazolo[3,4-d]pyrimidin-4-one] | – | – | IC50 (PDE1B [5]): 1390 nM

Compound | IC50 (PDE9A; [6]) [nM] | ORAC [1] [trolox equivalents] | ORAC-FL value / antioxidant activity (in words) [1] | also measured
C[C@@H](NC(=O)/C=C/c1cccc(O)c1)c1nc2c(cnn2C2CCCC2)c(=O)[nH]1 [Compound 1h, (R, E)-N-(1–(1-cyclopentyl-4-oxo-4,5-dihydro-1H-pyrazolo[3,4-d]pyrimidin-6-yl)ethyl)-3–(3-hydroxyphenyl)acrylamide] | 56 ± 7 | 3.3 | – | fold of selectivity against PDE9 over PDE1B (PDE1B [2]): > 25 fold; inhibition at 1 µM (PDE1B [3]): 13%; IC50 (PDE9A; Table 2, read-out: IC50 (nM) of PDE9A): 56 ± 1 nM; inhibition at 10 µM (PDE8A): 10%; fold of selectivity against PDE9 over PDE8A (PDE8A; estimated from inhibition at 10 μM): > 250 fold; viability at 48 h, 40 µM ([4]; 40 μM): ~90%; viability at 48 h, 100 µM ([4]; 100 μM): ~70%; cytotoxicity to SH-SY5Y cells (in words) (SH-SY5Y cells): no cytotoxicity; also recorded: not toxic
